Consider eleven compounds from patent US20090215805A1, “4-Heteroaryl Pyrimidine Derivatives and use thereof as Protein Kinase Inhibitors” (Cyclacel Limited, priority 2005, published 2009).

The target of one data set is DM Aur A (Dm AK-A) (Drosophila melanogaster, UniProt Q9VGF9). Kind of data set: Dm aurora A kinase assay (DM Aur A / Dm AK-A). Format: biochemical. The following applies: for Ki: in vitro kinase assay; for IC50: values without asterisk (DM aurora A). On the procedure:
(§1) The compounds of the invention above were investigated for their ability to inhibit the enzymatic activity of various protein kinases. This was achieved by measurement of incorporation of radioactive phosphate from ATP into appropriate polypeptide substrates. Recombinant protein kinases and kinase complexes were produced or obtained commercially. Assays were performed using 96-well plates and appropriate assay buffers (typically 25 mM β-glycerophosphate, 20 mM MOPS, 5 mM EGTA, 1 mM DTT, 1 mM […], pH 7.4), into which were added 2-4 μg of active enzyme with appropriate substrates. The reactions were initiated by addition of Mg/ATP mix (15 mM MgCl2+100 μM ATP with 30-50 kBq per well of [γ-^32P]-ATP) and mixtures incubated as required at 30° C. Reactions were stopped on ice, followed by filtration through p81 filterplates or GF/C filterplates (Whatman Polyfiltronics, Kent, UK). After washing 3 times with 75 mM aq orthophosphoric acid, plates were dried, scintillant added and incorporated radioactivity measured in a scintillation counter (TopCount, Packard Instruments, Pangbourne, Berks, UK). Compounds for kinase assay were made up as 10 mM stocks in DMSO and diluted into 10% DMSO in assay buffer. Data was analysed using curve-fitting software (GraphPad Prism version 3.00 for Windows, GraphPad Software, San Diego Calif. USA) to determine IC50 values (concentration of test compound which inhibits kinase activity by 50%).

Another data set deals with CDK2/E (Homo sapiens, UniProt P24941). Kind of data set: CDK2/E in vitro kinase assay. Format: biochemical. On the procedure: as §1
For another data set, the target named is GSK3 (GSK-3β) (Oryctolagus cuniculus, UniProt A0A5F9DUX8). Kind of data set: GSK-3 kinase assay. The data set is classed as biochemical, rabbit. The following applies: in vitro kinase assay. On the procedure: GSK-3 was obtained from New England Biolabs (UK) Ltd., Hitchin, Herts. The recombinant enzyme was isolated from a strain of E. coli that carries a clone expressing GSK-3β derived from a rabbit skeletal muscle cDNA library [Wang, Q. M.; Fiol, C. J.; DePaoli-Roach, A. A.; Roach, P. J. J. Biol. Chem., 1994, 269, 14566]. Inhibition of GSK-3 function was assessed by measurement of phosphorylation of CREB phosphopeptide KRREILSRRPphosphoSYR in the presence of test compounds. Using a 96-well assay format, GSK3 (7.5 U) was incubated for 30 min at 30° C. in a total volume of 25 μL in 20 mM MOPS pH 7.2, 25 mM β-glycerophosphate, 5 mM EGTA, 1 mM DTT, 1 mM […], 40 μM CREB peptide, 15 mM MgCl2 and 100 μM ATP (containing 0.25 μCi [γ-^32P]-ATP) in the presence of varying concentrations of test compound. The samples were transferred to 96-well p81 filter plates (Whatman Polyfiltronics, Kent, UK), and the plates were washed 4 times with 200 μL/well of 75 mM aq orthophosphoric acid. Scintillation liquid (50 μL) was added to each well, and incorporated radioactivity for each sample was determined using a scintillation counter (TopCount, Packard Instruments, Pangboume, Berks, UK).
GSK3 (GSK-3β), sequence (A0A5F9DUX8 entry or part of it): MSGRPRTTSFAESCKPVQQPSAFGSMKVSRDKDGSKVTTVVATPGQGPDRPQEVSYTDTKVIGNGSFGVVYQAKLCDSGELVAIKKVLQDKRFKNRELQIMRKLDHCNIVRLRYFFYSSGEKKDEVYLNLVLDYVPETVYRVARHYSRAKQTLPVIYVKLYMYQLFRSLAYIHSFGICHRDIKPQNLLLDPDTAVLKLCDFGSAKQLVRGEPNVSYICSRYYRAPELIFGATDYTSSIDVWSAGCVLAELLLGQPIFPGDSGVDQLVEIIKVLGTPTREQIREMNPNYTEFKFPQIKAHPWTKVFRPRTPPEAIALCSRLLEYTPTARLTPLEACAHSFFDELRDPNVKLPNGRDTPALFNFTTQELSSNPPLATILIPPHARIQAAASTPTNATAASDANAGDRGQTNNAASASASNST

Data set [1] concerns Glycogen synthase activation in HEK293 cells. Kind of data set: Glycogen synthase activation in HEK293 cells. Format: cell-based. The following applies: Homo sapiens, 1.5 h, 90 minutes treatment. On the procedure: (§2) HEK293 cells, mouse adipocytes or rat myotubes were treated in 10 cm Petri dishes with different concentrations of GSK3 inhibitors for 90 minutes. At the end of the treatment period the cells were washed and scraped in ice cold PBS buffer supplemented with 20 mM NaF. The cells were pelleted by centrifugation and lysed in 300 μl buffer-50 mM HEPES pH 7.5, 10 mM EDTA, 100 mM NaF, 5 mM DTT, protease inhibitor cocktail (Sigma). After incubation for 30 min on ice the samples were cleared by centrifugation. The activity of glycogen synthase was determined in the soluble fraction at two different concentrations of […]-low (0.1 mM) and high (10 mM). The reaction was carried out for 30 min in a buffer—50 mM Tris pH 7.8, 20 mM EDTA, 25 mM NaF, S mM DTT. The reaction mixture (total volume of 90 μl) consisted as well of 1% glycogen, 0.3 mM UDP-glucose and 0.06 μCi ^14C-UDP-glucose. Reaction was stopped by transfer of 70 μl to a GFC 96-well filter plate, containing 140 μl 100% ethanol an the glycogen was allowed to precipitate for 1 h at 4° C. The wells were washed 2 times with 200 μl 66% ethanol and than let to dry. Subsequently, 100 μl of scintillation liquid were added, and plates were sealed and counted in a Packard Topcounter. Glycogen synthase activation was calculated as the ratio between the incorporation of labelled ^14C-UDP-glucose in glycogen at low and high concentration of […] (fractional velocity).

The test system of data set [2] is Glycogen synthase activation in mouse adipocytes (3T3-L1). Kind of data set: Glycogen synthase activation in mouse adipocytes (3T3-L1). The data set is classed as cell-based. The settings on record: 1.5 h; 3T3-L1 mouse adipocytes, 90 minutes treatment. As to the method: 3T3-L1 mouse pre-adipocytes were grown in DMEM supplemented with 10% FCS and pen/strep until fully confluent. Cell differentiation was initiated by the addition of 0.5 mM IBMX (2-isobutyl-1-methylxanthine), 0.25 μM Dexamethasone and 1 μg/ml insulin into the growth media. The differentiation media was replaced after 4 days and 7 days after the initiation of differentiation the cells were grown for additional 3 days in DMEM, 10% FCS and pen/strep.
as §2

Data set [3] relates to Glycogen synthase activation in rat myotubes (L6.G8.C5). Kind of data set: Glycogen synthase activation in rat myotubes (L6.G8.C5). The data set is classed as cell-based. The following applies: Myotube, 1.5 h, 90 minutes treatment. On the procedure:
Rat myotubes were differentiated from L6.G8.C5 myoblasts, which were grown in DMEM, 10% FCS and pen/strep until confluent. The media was then removed, cells washed with PBS and differentiation media containing minimal essential media eagles (alpha modified) supplemented with 2% FCS and pen/strep. The cells were cultured for 3-4 days until >90% of cells have formed multinucleated myotubes. The differentiated cells were then used for determination of glycogen synthase activation after treatment with GSK3 inhibitors.
as §2

In data set [4] the test system is PEPCK gene expression in HEPG2 cells. The data set is described as follows: PEPCK gene expression in HEPG2 cells - QPCR assay. Format: cell-based. The settings on record: HEPG2, Dex/cAMP +, percentage of the dexametasone-induced stimulation. As to the method:
PEPCK gene expression was studied in HEPG2 (hepatocarcinoma) cells, seeded in 6-well plate at […] cells per well. The cells were serum starved for 20 hours before treatment with dexamethasone/cAMP (stimulator of PEPCK gene expression) in the presence or absence of insulin or GSK3 inhibitors. After 3 hours treatment the cells were harvested, lysed and RNA extracted using mini RNeasy spin column (Quiagen). The primer set COD2063/COD2064 (350 bp) was used for PEPCK gene. The one step RT-PCR was carried out using the Lightcycler-RNA Master SYBR Green 1 Kit. The qPCR analysis calculates the number of the PCR cycles required for the PCR product amplification to reach logarithmic phase. QPCR for a housekeeping gene—28S—was used for normalisation. PEPCK is a key enzyme in gluconeogenesis in the liver and it is known be negatively regulated by insulin via inhibition of GSK3. The effect of GSK3 inhibitors on PEPCK gene expression was studied in HEPG2 (hepatocarcinoma) cells treated with dexametasone/cAMP (a positive regulator of PEPCK gene expression) in the presence or absence of insulin or GSK3 inhibitors.

Where only a bound is given, the exact number is not on record here.

DM Aur A (Dm AK-A), sequence (Q9VGF9 entry or part of it): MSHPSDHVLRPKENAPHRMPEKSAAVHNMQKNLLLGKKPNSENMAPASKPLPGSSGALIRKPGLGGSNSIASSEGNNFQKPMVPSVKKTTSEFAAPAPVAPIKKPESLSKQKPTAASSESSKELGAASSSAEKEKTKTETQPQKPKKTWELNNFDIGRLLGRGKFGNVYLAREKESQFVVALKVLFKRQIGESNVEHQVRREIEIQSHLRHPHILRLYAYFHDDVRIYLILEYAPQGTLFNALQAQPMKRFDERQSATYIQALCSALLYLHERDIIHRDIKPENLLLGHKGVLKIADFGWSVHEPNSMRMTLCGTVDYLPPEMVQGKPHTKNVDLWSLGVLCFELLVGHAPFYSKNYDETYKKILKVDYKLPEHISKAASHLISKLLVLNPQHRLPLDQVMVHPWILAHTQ

Take `CCNS(=O)(=O)c1cccc(Nc2nccc(-c3c(C)[nH]c(C#N)c3C)n2)c1` [Compound 32]: the values for the Ki at DM Aur A (Dm AK-A), at CDK2/E and at GSK3 (GSK-3β) were 161 nM, 377 nM and 3 nM, respectively. The same compound had an IC50 on DM Aur A (Dm AK-A) of 413 nM. Moreover, the EC50 in data set [1] stood at 4100 nM; in data set [2], 2100 nM; in data set [3], 5000 nM.

In the case of `COc1ccc(Nc2nccc(-c3c(C)[nH]c(C#N)c3C)n2)cn1` [Compound 28], the Ki at DM Aur A (Dm AK-A) is 177 nM; on CDK2/E it was 188 nM; at GSK3 (GSK-3β) it was 5 nM. The same compound gave an IC50 on DM Aur A (Dm AK-A) of 453 nM. For the same compound, the EC50 in data set [1] stood at 6600 nM; in data set [2], 7900 nM; in data set [3] it was 9000 nM. Besides, the “% PEPCK activity” value is 48.4 ± 7.3% in data set [4] (concentration 1 uM) and 11.7 ± 1.3% in data set [4] (concentration 10 uM).

With `Cc1[nH]c([N+](=O)[O-])c(C)c1-c1ccnc(Nc2ccc(N(C)C)c([N+](=O)[O-])c2)n1` [Compound 19], the Ki on CDK2/E was determined as 41 nM; on GSK3 (GSK-3β), 4 nM. Besides, the EC50 in data set [1] was determined as 700 nM; in data set [2], 5600 nM; in data set [3], 6300 nM. Moreover, the “% PEPCK activity” value in data set [4] (concentration 1 uM) is reported as 72.9 ± 9.06%; in data set [4] (concentration 10 uM) it was 45.4 ± 1.9%.

With `Cc1[nH]c(C#N)c(C)c1-c1ccnc(Nc2ccc(N(C)C)c([N+](=O)[O-])c2)n1` [Compound 18], the Ki is 119 nM at CDK2/E and 5 nM at GSK3 (GSK-3β). Further, the EC50 in data set [1] is 1500 nM; in data set [2], 4120 nM.

`Cc1[nH]cc(-c2ccccc2)c1-c1ccnc(Nc2ccc(F)cc2)n1` [Compound 16] came in with a melting point of 196.6 to 198.1 °C. Also, the affinity on GSK3 (GSK-3β), expressed as Ki, was 45 nM.

For the compound “Insulin: insulin, comparator known to negatively regulate PEPCK via inhibition of GSK3”, the “% PEPCK activity” value in data set [4] (concentration 0.1 uM) amounted to 67.5 ± 9.0%.

As to `Cc1[nH]c(C#N)c(C)c1-c1ccnc(Nc2ccc(Cl)nc2)n1` [Compound 30], the Ki at DM Aur A (Dm AK-A) amounted to 681 nM; on CDK2/E, 197 nM; at GSK3 (GSK-3β) it was 3 nM. This compound returned an IC50 at DM Aur A (Dm AK-A) of 861 nM. Moreover, the values for the EC50 in data set [1], in data set [2] and in data set [3] were 2200 nM, 4300 nM and 2300 nM, respectively. Besides, the “% PEPCK activity” value came to 22.8 ± 12.1% in data set [4] (concentration 1 uM) and 16.2 ± 3.8% in data set [4] (concentration 10 uM).

Consider `CCOC(=O)c1[nH]c(C)c(-c2ccnc(Nc3ccc(C(F)(F)F)cc3)n2)c1-c1ccccc1` [Compound 10], for which the melting point was in the range of 227 to 230 °C. At DM Aur A (Dm AK-A), the Ki is > 10000 nM and the IC50 is ≥ 10000 nM.

The compound `Cc1[nH]cc(-c2ccccc2)c1-c1ccnc(Nc2cccc([N+](=O)[O-])c2)n1` [Compound 13] displayed a melting point of 201 to 203 °C. On DM Aur A (Dm AK-A), this compound had a Ki of 335 nM and an IC50 of 859 nM. Also, the inhibition constant (Ki) on GSK3 (GSK-3β) amounted to 208 nM.

With `Cc1[nH]c(CN(C)C)c(C)c1-c1ccnc(Nc2cccc([N+](=O)[O-])c2)n1` [Compound 17], the melting point fell in the range of 88.3 to 92.6 °C. On DM Aur A (Dm AK-A), this compound yielded a Ki of 40 nM and a concentration for half-maximal inhibition (IC50) of 102 nM. On CDK2/E, this compound gave an inhibitory constant (Ki) of 33 nM. On GSK3 (GSK-3β), this compound returned a Ki of 3270 nM.

Regarding `Cc1[nH]cc(-c2ccccc2)c1-c1ccnc(Nc2ccc(O)cc2)n1` [Compound 15], the melting point fell in the range of 194.1 to 195.6 °C. On DM Aur A (Dm AK-A), this compound had a Ki of 602 nM and a concentration for half-maximal inhibition (IC50) of 1540 nM. At GSK3 (GSK-3β), this compound showed an inhibition constant Ki of 133 nM.

For orientation: Ki means a dissociation constant, usually derived from enzyme kinetics or from competition with a known ligand. Usually IC50 stands for the concentration needed to halve the response being measured. The term EC50 denotes the concentration needed to bring the measured effect to its halfway point. A high value points to weaker potency. In general, melting point refers to the temperature of the solid-liquid transition.
